The results in this text go back to paper PMC6514909, “Synthesis of New Derivatives of Benzofuran as Potential Anticancer Agents” (Molecules, 2019).

Entries after “also recorded” stand apart in the source; their conditions may differ.

For one series, the system named is cancer cell lines. Description: MTT cytotoxicity, cancer cell lines overall. It is filed as cell-based, human. Conditions: for cytotoxic properties toward cancer cell lines: K562, MOLT-4, HeLa, MTT, 48 h. On the procedure: (§1) Fourteen new benzofuran derivatives were tested for their cytotoxic properties in K562, MOLT-4 (leukemia, suspension cells), HeLa (cervix carcinoma, adherent cells), and normal endothelial cells (HUVEC). First, we measured the viability of cells after 48 h incubation with the given compound at the concentration of 100 μM. Next, for compounds that reduced cancer cells survival for more than 50%, we determined IC50 values. Cells that were exposed to 1% DMSO (a vehicle) served as the control with 100% survival. Cells treated with 1 µM staurosporine served as the internal control of the cytotoxicity experiments.
(§2) Human umbilical vein endothelial cells (Life Technologies, Waltham, MA, USA) were cultured (according to the manufacturer instructions) in Medium 200 supplemented with Low Serum Growth Supplement. 1 × 10^4 HUVEC cells were seeded on each well on a 96-well plate (Nunc). The HeLa (human cervix carcinoma) K562 and MOLT-4 (leukemia) cells were cultured in RPMI 1640 medium supplemented with antibiotics and 10% fetal calf serum (HeLa, K562) in a 5% CO2-95% air atmosphere. 7 × 10^3 HeLa, K562, or MOLT-4 cells were seeded on each well on 96-well plate (Nunc). 24 h later cells were treated with the test compounds and then incubated for an additional 48 hours. Stock solutions of test compounds were freshly prepared in DMSO (dimethylsulfoxide). The final concentrations of compounds that were tested in the cell cultures were: 2 × 10^−1, 1 ×10^−1, 5 × 10^−2, 1 × 10^−2, 1 × 10^−3 and 1 × 10^−4 mM. The concentration of DMSO in the cell culture medium was 1%.
(§3) The values of IC50 (the concentration of test compound that is required to reduce the cell survival fraction to 50% of the control) were calculated from dose-response curves and used as a measure of cellular sensitivity to a given treatment.
(§4) The MTT [3-(4,5-dimethylthiazol-2-yl)-2,5-diphenyltetrazolium bromide; Sigma, St. Louis, MO, USA] assay determined the cytotoxicity of all the compounds, as described previously. Briefly, after 24 h or 48 h of incubation with the drug, the cells were treated with the MTT reagent, and incubation was continued for 2 h. MTT-formazan crystals were dissolved in 20% SDS and 50% DMF at pH 4.7 and absorbance was read at 570 and 650 nm on an ELISA-PLATE READER (FLUOstar Omega, BMG LABTECH GmbH, Ortenberg, Germany). As a control (100% viability), cells that were grown in the presence of medium vehicle only with 1% DMSO were used.

Series [1] deals with HeLa (human cervix carcinoma) cells. Put plainly: MTT cytotoxicity assay, HeLa. Conditions: for IC50: Homo sapiens, HeLa, 48 h incubation with cells, MTT; for reduction of viability of HeLa cells: initial screening, 100 μM, 48 h. It counts as cell-based. On the procedure: as §1, §2, §3, §4
Background: Tetrazolium assays rely on reduction of a dye to a coloured formazan, in cell work by metabolically active cells.

Another series concerns K562 (leukemia) cells. Description: MTT cytotoxicity assay, K562. It counts as cell-based, human. The settings on record: for IC50: 48 h incubation with cells, MTT; for reduction of viability of K562 cells: initial screening, 100 μM, 48 h. On the procedure:
as §1, §2, §3, §4

The subject of a further series is MOLT-4 (leukemia) cells. Put plainly: MTT cytotoxicity assay, MOLT-4. Conditions: for IC50: Homo sapiens, MOLT-4, 48 h incubation with cells, MTT; for reduction of viability of MOLT-4 cells: initial screening, 100 μM, 48 h. It counts as cell-based, human. On the procedure:
as §1, §2, §3, §4

In series [2] the test system is Human umbilical vein endothelial cells (HUVEC). Description: MTT cytotoxicity assay, HUVEC. It is filed as cell-based. The settings on record: for IC50: Homo sapiens, HUVEC, 48 h incubation with cells, MTT; for cytotoxicity against human normal endothelial cells: initial screening, 100 μM, 48 h. On the procedure: as §1, §2, §3, §4
In series [3] the test system is caspase 3/7 in K562 cells. Description: Apo-ONE Homogeneous Caspase-3/7 Assay in K562 cells. It is filed as cell-based, human. The settings on record: compound at 5 × IC50 (staurosporine 1 µM), 18 h, 1% DMSO normalized to 1.0. On the procedure: We have measured the activity of caspases 3 and 7 (caspase 3/7), which are markers of programmed cell death. […] The activity of caspase 3/7 was measured using pro-fluorescent peptide substrate.
20 × 10^3 K562 cells were seeded on each well of 96-well plate in RPMI 1640 medium supplemented with 10% fetal calf serum and antibiotics. Cells were grown for 24 h at 37 °C and 5% CO2. The test compounds were dissolved in DMSO and added to the cell culture. The concentration of tested benzo[b]furans in cell culture was 5 × IC50.
Cells treated with 1% DMSO served as a negative control, while cells incubated with staurosporine (a strong inducer of apoptosis) were used as a positive control. Cells were exposed to test compounds for 18 h at 37 °C and 5% CO2. Subsequently, Apo-ONE® Homogeneous Caspase-3/7 Assay (Promega, Madison, WI, USA) measured the activity of caspase 3 and 7, according to the manufacturer’s instructions. Briefly, the cells were lysed and incubated for 1.5 h with profluorescent substrate for caspase 3 and 7. Next, fluorescence was read at an excitation wavelength of 485 nm and emission of 520 nm with FLUOStar Omega plate reader (BMG-Labtech, Ortenberg, Germany).
Figure 5 Activity of caspase 3 and 7 in K562 cells treated with the test benzofurans 1c, 1e, 2d, 3d, or staurosporine for 18 h. Apoptosis was determined by Apo-ONE® Homogeneous Caspase-3/7 Assay (Promega, Madison, WI, USA). Abbreviations: DMSO—K562 cells treated with 1% DMSO. The caspase activation level in cells exposed to 1% DMSO was normalized to 1.0. Mean values +/− SD are shown.

Series [4] relates to plasmid DNA (pcDNA3.1 HisC). Description: Digestion of plasmid DNA with BamHI restriction nuclease. It counts as biochemical. The settings on record: 100 µM, overnight 37 °C, then BamHI 3 h; agarose gel. The source says: We hypothesized that a possible explanation of observed cytotoxicity might be due to an interaction of test benzofurans with genomic DNA (e.g., by intercalation). To verify this hypothesis, we investigated whether the test benzofurans have any effect on digestion of a plasmid DNA (pcDNA3.1 HisC) with endonuclease BamH1. pcDNA3.1 HisC contains a unique BamH1 restriction site which allows for plasmid linearization. Plasmid DNA exists in linear, superhelical, and circular forms that differ in electrophoretic mobility (Figure 6 lane 1). Plasmid DNA was converted to a linear form upon digestion with BamH1 (lane 2). […] In the presence of test compounds, pcDNA3.1 HisC was partially digested with Bam H1 restriction enzyme (Figure 6 lanes 4–7). Most of the plasmid DNA was converted to a linear form, however there is a circular form still present.
0.5 μg of plasmid DNA (pcDNAHisC, total length 5.5 kbp) containing a unique BamHI restriction site was dissolved in a 1× BamHI reaction buffer and then incubated overnight at 37 °C with the test compounds or daunorubicin, a strong intercalating agent, which was used as a positive control. The concentration of the test compounds and daunorubicin samples was 100 µM. In the next step, the reaction mixtures were digested with BamHI restriction endonuclease (2 U/μL) for 3 h at 37 °C. The total reaction volume was 10 μL. Products of the reaction were subjected to the 1% agarose gel electrophoresis in TBE buffer. The gel was stained with ethidium bromide and DNA fragments were visualized under a UV lamp (GBox, Syngene, Cambridge, UK).
Figure 6 Digestion of pcDNA3.1HisC (total length 5.5kbp) with BamH1 endonuclease. M—marker DNA; 1—not digested plasmid DNA; 2—plasmid DNA digested with BamH1 (DNA present in linear form); 3—plasmid DNA + daunorubicin + BamH1; 4—plasmid DNA + 1c + BamH1; 5—plasmid DNA + 2d + BamH1; 6—plasmid DNA + 1e + BamH1; and, 7—plasmid DNA + 3d + BamH1.

A word on the melting point: it is the temperature of the solid-liquid transition. Regarding `COc1cc2c(C)c(C(=O)O)oc2c(C(C)=O)c1OC` [Compound 1, 7-Acetyl-5,6-dimethoxy-3-methylbenzofuran-2-carboxylic acid], the melting point was in the range of 212 to 214 °C.
Turning to `COc1cc2c(C)c(C(N)=O)oc2c(C(C)=O)c1OC` [Compound 1a, 7-Acetyl-5,6-dimethoxy-3-methylbenzofuran-2-carboxamide], the melting point lay within 203 to 205 °C. Besides, the “cytotoxic properties toward cancer cell lines” value in the series on cancer cell lines was “did not show the cytotoxic properties; also recorded: loss of cytotoxic properties”.
As to `COC(=O)c1oc2c(C(C)=O)c(OC)c(OC)cc2c1C` [Compound 1b, Methyl 7-acetyl-5,6-dimethoxy-3-methyl-1-benzofuran-2-carboxylate], the melting point lay in the range of 98 to 100 °C.
One may read the IC50 as the point on the concentration scale where inhibition reaches its midpoint. High values mean lower potency, low ones higher potency. Consider `COC(=O)c1oc2c(C(C)=O)c(OC)c(OC)cc2c1CBr` [Compound 1c, Methyl 7-acetyl-3-(bromomethyl)-5,6-dimethoxybenzofuran-2-carboxylate], for which, in series [1], the IC50 came to 50 µM and the “reduction of viability of HeLa cells” value is recorded as “more than 50%”. Besides, in the series with K562 (leukemia) cells, the IC50 stood at 25 µM and the “reduction of viability of K562 cells” value is on record as “more than 50%”. The compound also returned an IC50 in the series with K562 (leukemia) cells (Homo sapiens, K562, 48 h) of under 50 µM. Moreover, in the series with MOLT-4 (leukemia) cells, half-maximal inhibition (IC50) required 180 µM and the “reduction of viability of MOLT-4 cells” value is reported as “more than 50%”. For the same compound, in series [2], the midpoint of inhibition, the IC50, lay at 30 µM and the “cytotoxicity against human normal endothelial cells” value is on record as “cytotoxic”. In series [3], the “increase in the activity of caspase 3/7” value was “about two-fold”. Besides, the “inhibition of digestion of plasmid DNA with BamH1 / interaction with DNA” value in series [4] is reported as “to some extent, interact with DNA”.
The compound `COc1cc2c(C)c(Br)oc2c(C(C)=O)c1OC` [Compound 1d, 1-(2-Bromo-5,6-dimethoxy-3-methylbenzofuran-7-yl)ethanone] registered a melting point of 94 to 95 °C.
In the case of `CC(=O)c1cc2oc(C)c(C(N)=O)c2cc1O` [Compound 2a, 6-Acetyl-5-hydroxy-2-methylbenzofuran-3-carboxamide], the “cytotoxic properties toward cancer cell lines” value in the series on cancer cell lines was “did not show the cytotoxic properties; also recorded: loss of cytotoxic properties”.
As for `CC(=O)c1cc2oc(C)c(C(N)=O)c2c(Br)c1O` [Compound 2b, 6-Acetyl-4-bromo-5-hydroxy-2-methylbenzofuran-3-carboxamide], in the series on cancer cell lines, the “cytotoxic properties toward cancer cell lines” value is “loss of cytotoxic properties”.
Turning to `CC(=O)c1cc2oc(C)c(C(=O)O)c2c(Br)c1O` [Compound 2e, 6-Acetyl-4-bromo-5-hydroxy-2-methylbenzofuran-3-carboxylic acid], the melting point lay within 196 to 197 °C.
For the compound `COC(=O)c1c(C)oc2cc(C(O)C(Br)Br)c(OC)cc12` (centres unmarked) [Compound 3a, Methyl 6-(2,2-dibromo-1-hydroxyethyl)-5-methoxy-2-methylbenzofuran-3-carboxylate], the melting point lay within 170 to 172 °C. Moreover, in series [1], it took 80 µM to reach half-maximal inhibition (IC50) and the “reduction of viability of HeLa cells” value is on record as “more than 50%”. In addition, the midpoint of inhibition with K562 (leukemia) cells (Homo sapiens, K562, 48 h), the IC50, lay at 85 µM. Besides, the “reduction of viability of K562 cells” value with K562 (leukemia) cells is reported as “more than 50%”. Further, in the series with MOLT-4 (leukemia) cells, the 50% inhibitory concentration (IC50) is 85 µM and the “reduction of viability of MOLT-4 cells” value was “more than 50%”. In addition, in series [2], the IC50 came out at 67 µM and the “cytotoxicity against human normal endothelial cells” value is “cytotoxic”.
On to `COc1cc2c(C(=O)O)c(C)oc2cc1C(C)=O` [Compound 3b, 6-Acetyl-5-Methoxy-2-Methylbenzofuran-3-Carboxylic Acid], for which the melting point lay within 249 to 250 °C.
In the case of `COc1cc2c(C(N)=O)c(C)oc2cc1C(C)=O` [Compound 3c, 6-Acetyl-5-methoxy-2-methylbenzofuran-3-carboxamide], the melting point lay within 223 to 224 °C. In the series on cancer cell lines, the “cytotoxic properties toward cancer cell lines” value is recorded as “did not show the cytotoxic properties; also recorded: loss of cytotoxic properties”.
Regarding `COC(=O)c1c(CBr)oc2cc(C(C)=O)c(OC)cc12` [Compound 3d, Methyl 6-acetyl-2-(bromomethyl)-5-methoxybenzofuran-3-carboxylate], the IC50 in series [1] is 35 µM; in the series on K562 (leukemia) cells, 28 µM; with K562 (leukemia) cells (Homo sapiens, K562, 48 h), under 50 µM; with MOLT-4 (leukemia) cells it was 55 µM; in series [2] it was 6 µM. In addition, the “reduction of viability of HeLa cells” value in series [1] was “more than 50%”. Moreover, the “reduction of viability of K562 cells” value with K562 (leukemia) cells was “more than 50%”. In addition, in the series with MOLT-4 (leukemia) cells, the “reduction of viability of MOLT-4 cells” value is recorded as “more than 50%”. Besides, the “cytotoxicity against human normal endothelial cells” value in series [2] is recorded as “cytotoxic”. Also, the “increase in the activity of caspase 3/7” value in series [3] is on record as “minimal, if any”. In the series with cancer cell lines (compared to lead compounds VIII-X), the “decrease of cytotoxicity against human cancer cells compared to the lead compounds VIII-X” value is on record as 5–10 folds.
Take `COc1cccc2c1C(=O)c1c(O)c3c(c(O)c1C2=O)C[C@@](O)(C(C)=O)C[C@@H]3O[C@H]1C[C@H](N)[C@H](O)[C@H](C)O1` [Daunorubicin, reference compound]: the “inhibition of digestion of plasmid DNA with BamH1 / interaction with DNA” value in series [4] is on record as “completely inhibited”.
`CN[C@@H]1C[C@H]2O[C@@](C)([C@@H]1OC)n1c3ccccc3c3c4c(c5c6ccccc6n2c5c31)C(=O)NC4` [staurosporine, reference compound]: the “increase in the activity of caspase 3/7” value in series [3] is “significantly increased”.
